Consider two molecules from US7282590B2, “Drug conjugates” (The Research Foundation of State University of New York, priority 2004, dated 2007).

Data set [1] in a line: Cleavage of the disulfide bond in the drug-linker conjugate (drug release with cysteine as a model of glutathione, monitored by HPLC). The data set is classed as physicochemical. The settings on record: cysteine in buffer pH 7.0 / CH3CN, room temperature, after 2 hours. On the procedure:
In order to confirm that the designed drug-release mechanism works under physiological conditions, a control experiment was performed using an anticancer linker drug conjugate and cysteine as a model of glutathione. The results of the experiment below provide clear evidence that the drug is released according to the desired mechanism of the invention.
To a solution of the drug-linker conjugate, 2′-(5-fluoro-2-methyldisulfanylphenyl)acetyl-3′-dephenyl-3′-(2-methylpropyl)-10-propanoyldocetaxel, (4.8 mg, 0.0045 mmol) in CH3CN (1.1 mL) was added cysteine (2.20 mg, 0.018 mmol) in buffer (pH 7.0, 0.56 mL) solution. The mixture was stirred at room temperature. The progress of the disulfide cleavage and drug release process was monitored by HPLC [Conditions: C-18 column. Flow rate: H2O, 0.6 mL/min; CH3CN, 0.4 mL/min., ambient temperature] periodically. The formations of thiolactone (5-fluoro-3H-benzo[b]thiophen-2-one) (retention time=9.05 min) and taxoid (3′-dephenyl-3′-(2-methylpropyl)-10-propanoyldocetaxel) (retention time=14.01 min) as well as the disappearance of the drug-linker conjugate (retention time=18.20 min) was clearly observed.

As to “2′-(5-fluoro-2-methyldisulfanylphenyl)acetyl-3′-dephenyl-3′-(2-methylpropyl)-10-propanoyldocetaxel”, in data set [1], the “disappearance of the drug-linker conjugate (disulfide cleavage and drug release: release of the taxoid, formation of the thiolactone)” value is recorded as “completely disappeared”.
For the molecule `CC(C)(CC(=O)O)c1ccccc1SSc1ccccn1` [Example 7, 3-Methyl-3-[2-(pyridine-2-yldisulfanyl)phenyl]butanoic acid], the melting point was in the range of 122 to 125 °C.
